Reference: patent US6348445B1, “Biologically active peptides with reduced toxicity in animals and a method for preparing same” (priority 1992, dated 2002)
Where no end group is shown, it is not given here.

Columns and labels:
[1] = test system: A-549 human lung carcinoma cells; type: cell-based; conditions: 24 h
Procedure: (§1) Human lung carcinoma cells, A-549 (ATCC), and human breast carcinoma cells, MDA-435 (from Sandoz), were grown in Ham's F12K medium (GIBCO-BRL) supplemented with […] fetal bovine serum. Human chronic myelogenous leukemia cells, K-562 (ATCC), were maintained in RPMI 1640 medium (GIBCO-BRL) supplemented with 10% fetal bovine serum. Human melanoma cell line, WM 1617 (from the Wistar Institute), was maintained in 2% Tumor media.
(§2) Cytotoxicity assays were performed on the cell lines described above using CytoLite (Packard Instrument Company) following the manufacture's instruction. Briefly, 2×10^4cells/well were seeded into black, 96-well ViewPlates (Packard Instrument Company) in 100 μl/well growth medium. Ser. dilutions of Magainin peptides were then added into the cells and the plates incubated for 24 hours in a humidified 5% CO2 atmosphere at 37° C. Following incubation, 25 μl/well of CytoLite activator solution was added followed by 125 μl/well of amplifier solution. Luminescence was measured on TopCount Microplate Scintillation and Luminescence counter (Packard Instrument Company) using a 1 second count time in SPC (single photon counting) mode at 25 ° C. All assays were performed in triplicate. The peptides tested in this assay were MSI-78(SEQ ID NO: 154 —NH2), MSI-1858(SEQ ID NO: 154 —NH2 Methane Sulfonate), MSI-344(SEQ ID NO: 154 —OH) and MSI-1857(SEQ ID NO: 154 —OH Methane Sulfonate). The results of these assays are shown in FIGS. 2-9 with the corresponding IC50 values in Table VIII. In all cases the activity of the methane sulfonated peptide was as good or better than the parent peptide as indicated by both the survival curves and the IC50 values.

[2] = test system: K-562 human chronic myelogenous leukemia cells; type: cell-based; conditions: 24 h
Procedure: as §1, §2

[3] = test system: MDA-435 human breast carcinoma cells; type: cell-based; conditions: 24 h
Procedure: as §1, §2

[4] = test system: WM 1617 human melanoma cells; type: cell-based; conditions: 24 h
Procedure: as §1, §2

[5] = MTD and LD50, single intravenous administration; type: in vivo, mice
Procedure: Determinations of a maximal tolerated dose (MTD) of a single intravenous (i.v.) administration or intraperitoneal (i.p.) administration of MSI-344 or MSI-1857 in 100 CD-1®BR mice were done. The MTD of a single intravenous (i.v.) administration was 10 mg/kg for MSI-344 and 60 mg/kg for MSI-1857. The MTD of a single intraperitoneal (i.p.) administration was less than 20 mg/kg for MSI-344 and between 50 and 100 mg/kg for MSI-1857.
To determine estimates of MTDs and LD50s of MSI-344 and MSI-1857 administered intravenously or intraperitoneally as a single bolus in mice.
A 5 mg/mL solution of MSI-344 was made in saline (0.9% sodium chloride injection USP, Abbott, North Chicago, Ill.) corrected for peptide content. Solutions of MSI-344 at concentrations of 4, 3, 2, 1.5, 1, and 0.5 mg/mL were made by diluting the 5 mg/mL solution using saline as diluent. (Errors were made in solution preparation of the 4, 3, and 2 mg/mL solutions and results from groups with animals doses with these solutions, i.e. groups 12, 13, and 14, were eliminated from study analysis). A 20 mg/mL solution of MSI-1857 was made in saline. Solutions of MSI-1857 at concentrations of 15, 10, 8, 6, and 5 mg/mL were made by diluting the 20 mg/mL solution using saline as diluent.
Another 5 mg/mL solution of MSI-344 was made in saline corrected for peptide content. Solutions of 4, 3 and 2 mg/mL were made by diluting the 5 mg/mL solution using saline as diluent. A 15 mg/mL solution of MSI-1857 in saline was made corrected for peptide content. A 10 mg/mL solution was made by diluting the 15 mg/mL solution with saline.
Mice (four mice per dose group) were intravenously or intraperitoneally administered a single bolus of MSI-344 or MSI-1857 using an injection volume of 10 mL/kg of the appropriate solution concentration. If the first two mice in a group died immediately (within 10 secs) after administration of a dose then no other mice injected with this dose of this compound (for ethical reasons). Survival was monitored daily for at least eight days post-administration. Study designs are presented in Tables IX and X. Toxicity Study # 262 was a supplement to Toxicity Study #261.

[6] = Tox Study #261 group 2, 20 mg/kg IV, 2 injected
[7] = Tox Study #261 group 3, 15 mg/kg IV, 2 injected
[8] = Tox Study #261 group 4, 10 mg/kg IV, 4 injected
[9] = Tox Study #261 group 5, 5 mg/kg IV, 4 injected

## GIGKFLKKAKKFGKAFVKILKK [MSI-344]
[1]
  IC50: 10 µM
[2]
  IC50: 20 µM
[3]
  IC50: 8 µM
[4]
  IC50: 5 µM
[5]; [6]
  No. of Survivors Day 1: 0
  No. of Survivors Day 2: 0
  No. of Survivors Day 3: 0
  No. of Survivors Day 4: 0
  No. of Survivors Day 5: 0
  No. of Survivors Day 6: 0
  No. of Survivors Day 7: 0
  No. of Survivors Day 8: 0
[5]; [7]
  No. of Survivors Day 1: 0
  No. of Survivors Day 2: 0
  No. of Survivors Day 3: 0
  No. of Survivors Day 4: 0
  No. of Survivors Day 5: 0
  No. of Survivors Day 6: 0
  No. of Survivors Day 7: 0
  No. of Survivors Day 8: 0
[5]; [8]
  No. of Survivors Day 1: 4
  No. of Survivors Day 2: 4
  No. of Survivors Day 3: 4
  No. of Survivors Day 4: 4
  No. of Survivors Day 5: 4
  No. of Survivors Day 6: 4
  No. of Survivors Day 7: 4
  No. of Survivors Day 8: 4
[5]; [9]
  No. of Survivors Day 1: 4
  No. of Survivors Day 2: 4
  No. of Survivors Day 3: 4
  No. of Survivors Day 4: 4
  No. of Survivors Day 5: 4
  No. of Survivors Day 6: 4
  No. of Survivors Day 7: 4
  No. of Survivors Day 8: 4
[5]; mouse, in vivo, iv, CD-1 mice, estimated from dose response curves
  LD50: 12.5 mg/kg
[5]; mouse, in vivo, iv, CD-1 mice, read-out: MTD of a single intravenous (i.v.) administration
  MTD: 10 mg/kg
